From ChEMBL document CHEMBL1201862, “PubChem BioAssay data set” (2004)
Where “and” joins values, the source holds several entries; their conditions need not be identical. Equal entries are not always repeated. Calls of active or inactive are those of the source.

Key:
[1] = molecular target: Metabotropic glutamate receptor 3 (Rattus norvegicus, UniProt P31422); assay: mGlu3 negative allosteric modulator potency, dose response, HEK/GIRK cells, thallium flux, rat (AID 651839); format: functional
[2] = CEM21 cell cytotoxicity, dose response, cytotoxicity control, plate reader, dry powder (AID 687026); format: functional, cell-based
[3] = HIV Env cell-cell fusion inhibitors, dose response, HIV entry, plate reader, dry powder (AID 687023); format: functional, cell-based
[4] = inhibitors of CMV-promoter luciferase reporter, dose response, counter-screen for Pax8 inhibitor project, cell-based, HEK293, luminescence, dry powder (AID 743020); format: functional
Paired box protein Pax-8 = Paired box protein Pax-8 (Homo sapiens, UniProt Q06710); assay: inhibitors of PAX8-driven TPO luciferase reporter, dose response, RMG-I cells, cherry-pick (AID 687027); format: functional, cell-based;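 note: luciferase reporter driven by Pax8 target thyroperoxidase promoter measured by SteadyGlo luminescence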
[5] = T. cruzi growth inhibition in host cells, dose response, cell-based, plate reader, dry powder, set 2 (AID 652275); format: functional
[6] = growth inhibition of intracellular T. cruzi, dose response, cell-based, plate reader, dry powder samples (AID 651845); format: functional
[7] = T. cruzi intracellular amastigote growth inhibition, dose response, imaging, CA-I/72 strain, bovine embryo skeletal muscle, dry powder (AID 651885); format: functional, cell-based
[8] = inhibitors of PGC1a acetylation in cells, dose response, cell-based, cherry-picked samples (AID 720514); format: functional;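 note: potency may reflect raised or lowered acetylation signal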
[9] = CFTR ΔF508 corrector activity in bronchial cells, dose response, human bronchial epithelial cells, plate reader, cherry-pick, two tests (AID 743267); format: functional, cell-based
[10] = A549 cell cytotoxicity, dose response, cytotoxicity control, 24 h, CellTiter-Glo luminescence, cherry-picks (AID 1053115); format: functional, cell-based; settings: A549, 24 h
[11] = HEK293T cytotoxicity, dose response, cytotoxicity control for miR-122 modulator project, cell-based, inhibitor set, cherry-pick, set 2 (AID 720697); format: functional
[12] = miR-122 activators in hepatoma reporter cells, dose response, cell-based, Huh7 psiCHECK-miR122, Renilla luciferase, cherry-picked (AID 651956); format: functional;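 note: huh7 hepatoma cells stably carrying a psiCHECK-2 miR-122 sensor plasmid; renilla luciferase signal reporting endogenous miR-122 activity after 48 h compound exposure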
[13] = HEK293T cytotoxicity, dose response, cytotoxicity control for miR-122 modulator project, cell-based, activator set, cherry-pick (AID 720690); format: functional;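 note: HEK293T human cells scored for general mammalian cytotoxicity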
[14] = molecular target: T1, Sentrin-specific protease 8 (Homo sapiens, UniProt Q96LD8); format: functional;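 note: luminescence read-out of SENP8 inhibition, dose-response confirmation following an ultra-high-throughput screen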
T1 sequence (Q96LD8 whole entry): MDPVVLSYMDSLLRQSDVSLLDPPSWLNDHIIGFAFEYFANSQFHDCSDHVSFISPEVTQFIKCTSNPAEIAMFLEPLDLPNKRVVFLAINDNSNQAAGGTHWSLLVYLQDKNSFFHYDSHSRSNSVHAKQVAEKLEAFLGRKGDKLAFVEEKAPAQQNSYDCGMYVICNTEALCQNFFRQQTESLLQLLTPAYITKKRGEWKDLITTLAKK

cells [15] = assay: cells
[16] = molecular target: T2, Oxysterols receptor LXR-beta (Homo sapiens, UniProt P55055); format: functional, cell-based
T2 sequence (P55055 whole entry): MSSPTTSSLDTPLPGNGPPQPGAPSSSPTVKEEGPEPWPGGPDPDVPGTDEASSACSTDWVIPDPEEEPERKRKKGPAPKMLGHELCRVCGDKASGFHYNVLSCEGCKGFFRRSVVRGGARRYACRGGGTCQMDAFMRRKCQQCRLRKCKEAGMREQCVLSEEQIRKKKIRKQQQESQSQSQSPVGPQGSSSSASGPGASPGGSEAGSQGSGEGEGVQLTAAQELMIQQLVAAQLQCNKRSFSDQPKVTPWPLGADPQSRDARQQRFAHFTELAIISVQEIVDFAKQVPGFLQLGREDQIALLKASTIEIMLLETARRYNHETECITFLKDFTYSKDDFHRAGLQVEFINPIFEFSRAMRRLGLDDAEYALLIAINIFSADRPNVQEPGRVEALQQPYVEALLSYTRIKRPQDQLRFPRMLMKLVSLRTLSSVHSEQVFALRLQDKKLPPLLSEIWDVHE

[17] = molecular target: T3, Sentrin-specific protease 7 (Homo sapiens, UniProt Q9BQF6); format: functional;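 note: Luminescence-based dose-response confirmation of ultra-high-throughput screening hits, measuring inhibition of SENP7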
T3 sequence (Q9BQF6 whole entry): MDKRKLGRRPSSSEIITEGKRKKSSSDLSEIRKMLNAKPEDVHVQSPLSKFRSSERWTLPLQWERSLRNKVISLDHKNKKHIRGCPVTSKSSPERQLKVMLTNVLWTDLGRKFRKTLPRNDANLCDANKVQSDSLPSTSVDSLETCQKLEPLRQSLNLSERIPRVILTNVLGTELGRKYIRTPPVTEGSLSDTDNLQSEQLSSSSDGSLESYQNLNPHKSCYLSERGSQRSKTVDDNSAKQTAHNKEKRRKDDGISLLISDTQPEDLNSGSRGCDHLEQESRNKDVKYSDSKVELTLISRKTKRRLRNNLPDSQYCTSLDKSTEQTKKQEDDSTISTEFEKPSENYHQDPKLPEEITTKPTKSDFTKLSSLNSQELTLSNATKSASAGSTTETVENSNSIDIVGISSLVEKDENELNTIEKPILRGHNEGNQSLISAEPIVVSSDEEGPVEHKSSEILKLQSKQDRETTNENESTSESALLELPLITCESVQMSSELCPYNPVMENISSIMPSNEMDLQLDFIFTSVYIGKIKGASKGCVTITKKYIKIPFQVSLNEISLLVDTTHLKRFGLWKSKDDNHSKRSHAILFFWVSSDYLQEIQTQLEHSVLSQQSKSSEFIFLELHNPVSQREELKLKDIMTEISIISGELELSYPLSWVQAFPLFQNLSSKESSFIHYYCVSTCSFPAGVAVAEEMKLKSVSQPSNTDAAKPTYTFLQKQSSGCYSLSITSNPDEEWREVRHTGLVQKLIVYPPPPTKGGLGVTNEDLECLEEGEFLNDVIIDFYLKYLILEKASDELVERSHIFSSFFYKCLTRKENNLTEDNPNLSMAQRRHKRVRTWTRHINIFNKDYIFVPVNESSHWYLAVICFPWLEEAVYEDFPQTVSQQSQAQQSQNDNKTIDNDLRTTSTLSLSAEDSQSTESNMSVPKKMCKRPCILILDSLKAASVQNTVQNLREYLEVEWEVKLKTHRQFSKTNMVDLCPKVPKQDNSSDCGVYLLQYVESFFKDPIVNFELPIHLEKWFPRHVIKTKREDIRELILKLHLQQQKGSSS

Caspase-3 = molecular target: T4, Caspase-3 (Homo sapiens, UniProt P42574); format: functional;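 note: Dose-response selectivity test against caspase-3 for candidate inhibitors of sentrin-specific proteases (SENPs)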
T4 sequence (P42574 whole entry): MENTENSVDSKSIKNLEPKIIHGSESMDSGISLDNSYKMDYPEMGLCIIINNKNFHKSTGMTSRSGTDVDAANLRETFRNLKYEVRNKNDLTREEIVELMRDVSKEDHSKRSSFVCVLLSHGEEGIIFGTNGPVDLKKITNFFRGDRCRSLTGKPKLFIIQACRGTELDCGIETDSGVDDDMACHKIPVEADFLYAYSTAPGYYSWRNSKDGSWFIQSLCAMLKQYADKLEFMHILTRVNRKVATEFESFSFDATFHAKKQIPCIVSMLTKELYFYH

[18] = molecular target: T5, Sentrin-specific protease 6 (Homo sapiens, UniProt Q9GZR1); format: functional;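 note: Luminescence-based dose-response confirmatory assay of SENP6 inhibition, following up an ultra-high-throughput screen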
T5 sequence (Q9GZR1 whole entry): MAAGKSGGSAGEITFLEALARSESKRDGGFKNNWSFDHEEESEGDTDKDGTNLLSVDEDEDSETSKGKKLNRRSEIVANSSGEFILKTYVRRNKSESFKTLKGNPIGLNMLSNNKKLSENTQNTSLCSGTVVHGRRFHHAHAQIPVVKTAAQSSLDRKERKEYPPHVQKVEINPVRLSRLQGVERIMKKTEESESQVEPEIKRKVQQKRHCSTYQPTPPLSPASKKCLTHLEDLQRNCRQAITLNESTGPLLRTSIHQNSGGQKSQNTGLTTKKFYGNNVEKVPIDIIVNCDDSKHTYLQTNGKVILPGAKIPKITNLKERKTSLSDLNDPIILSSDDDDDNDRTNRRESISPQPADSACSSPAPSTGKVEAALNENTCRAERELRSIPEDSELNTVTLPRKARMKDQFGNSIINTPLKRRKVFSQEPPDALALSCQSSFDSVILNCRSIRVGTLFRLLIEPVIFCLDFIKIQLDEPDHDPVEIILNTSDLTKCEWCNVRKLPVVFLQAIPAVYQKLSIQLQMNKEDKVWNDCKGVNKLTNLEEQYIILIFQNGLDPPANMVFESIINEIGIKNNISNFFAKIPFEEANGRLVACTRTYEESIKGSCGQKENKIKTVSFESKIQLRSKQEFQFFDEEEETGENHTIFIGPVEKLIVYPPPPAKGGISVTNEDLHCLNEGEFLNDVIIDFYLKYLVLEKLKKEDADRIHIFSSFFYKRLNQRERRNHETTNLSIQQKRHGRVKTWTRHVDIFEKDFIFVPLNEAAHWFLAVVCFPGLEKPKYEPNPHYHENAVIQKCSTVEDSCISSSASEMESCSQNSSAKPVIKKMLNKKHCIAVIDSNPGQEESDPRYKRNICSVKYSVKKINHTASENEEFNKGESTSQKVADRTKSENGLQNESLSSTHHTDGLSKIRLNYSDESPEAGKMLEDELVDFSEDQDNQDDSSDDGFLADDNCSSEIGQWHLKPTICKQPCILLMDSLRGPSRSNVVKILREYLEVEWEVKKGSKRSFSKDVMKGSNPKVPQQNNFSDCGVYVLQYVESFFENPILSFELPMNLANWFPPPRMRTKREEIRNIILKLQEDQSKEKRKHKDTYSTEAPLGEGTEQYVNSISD

[19] = HepG2 cell cytotoxicity, dose response, cytotoxicity control, cherry-picks, set 5 (AID 1053118); format: functional, cell-based
[20] = inhibitors of fibronectin matrix deposition, dose response, AH1F cells, Alexa488-FN fluorescence, cherry-picks (AID 1035475); format: functional, cell-based
[21] = HEK293 cell cytotoxicity, dose response, cytotoxicity control, cherry-picks, set 5 (AID 1053117); format: functional, cell-based
[22] = cytotoxicity toward NIH3T3 fibroblasts, dose response, counter-screen, cell-based, ATP luminescence, mouse fibroblasts (AID 2010); format: functional;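 note: cells exposed to compound for about 90 hours before reading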
[23] = HeLa cell cytotoxicity, dose response, cytotoxicity control, 24 h, plate reader, powder samples, set 3 (AID 651864); format: functional, cell-based
[24] = inhibitors of intracellular T. cruzi replication, confirmation, NIH3T3 host cells, beta-gal luminescence (AID 2044); format: functional, cell-based;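 note: intracellular parasites grown in NIH/3T3 mouse fibroblasts as host cells; luminescent beta-galactosidase reporter signal from transgenic T. cruzi replicating inside host cells; inhibitors lower the luminescence signal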
[25] = inhibitors of non-replicating M. tuberculosis, dose response, luciferase, dry powder (AID 651619); format: functional; settings: Mycobacterium tuberculosis
[26] = inhibitors of non-replicating M. tuberculosis, dose response, luciferase, dry powder (AID 651620); format: functional; settings: Mycobacterium tuberculosis
cells [27] = assay: cells; remark: listed apart in the source
[28] = HepG2 cell cytotoxicity, dose response, cytotoxicity control, ATP luminescence, cherry-pick, activator set 2 (AID 1053143); format: functional, cell-based
[29] = molecular target: T2, Oxysterols receptor LXR-beta; format: functional, cell-based; remark: listed apart in the source

Paired box protein Pax-8, sequence (Q06710 whole entry): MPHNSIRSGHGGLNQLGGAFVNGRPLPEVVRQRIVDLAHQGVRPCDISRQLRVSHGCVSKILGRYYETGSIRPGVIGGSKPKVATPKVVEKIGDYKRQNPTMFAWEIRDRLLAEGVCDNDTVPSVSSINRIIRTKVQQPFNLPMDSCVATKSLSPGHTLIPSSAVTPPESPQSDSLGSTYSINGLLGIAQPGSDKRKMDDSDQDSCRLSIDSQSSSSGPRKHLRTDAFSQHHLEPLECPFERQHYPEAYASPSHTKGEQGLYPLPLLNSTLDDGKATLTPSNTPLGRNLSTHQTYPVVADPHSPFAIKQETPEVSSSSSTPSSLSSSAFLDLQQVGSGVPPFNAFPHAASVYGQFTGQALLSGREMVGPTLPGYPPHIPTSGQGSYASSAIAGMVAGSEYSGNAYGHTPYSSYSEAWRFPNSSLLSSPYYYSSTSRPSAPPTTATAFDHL
Metabotropic glutamate receptor 3, sequence (P31422 whole entry): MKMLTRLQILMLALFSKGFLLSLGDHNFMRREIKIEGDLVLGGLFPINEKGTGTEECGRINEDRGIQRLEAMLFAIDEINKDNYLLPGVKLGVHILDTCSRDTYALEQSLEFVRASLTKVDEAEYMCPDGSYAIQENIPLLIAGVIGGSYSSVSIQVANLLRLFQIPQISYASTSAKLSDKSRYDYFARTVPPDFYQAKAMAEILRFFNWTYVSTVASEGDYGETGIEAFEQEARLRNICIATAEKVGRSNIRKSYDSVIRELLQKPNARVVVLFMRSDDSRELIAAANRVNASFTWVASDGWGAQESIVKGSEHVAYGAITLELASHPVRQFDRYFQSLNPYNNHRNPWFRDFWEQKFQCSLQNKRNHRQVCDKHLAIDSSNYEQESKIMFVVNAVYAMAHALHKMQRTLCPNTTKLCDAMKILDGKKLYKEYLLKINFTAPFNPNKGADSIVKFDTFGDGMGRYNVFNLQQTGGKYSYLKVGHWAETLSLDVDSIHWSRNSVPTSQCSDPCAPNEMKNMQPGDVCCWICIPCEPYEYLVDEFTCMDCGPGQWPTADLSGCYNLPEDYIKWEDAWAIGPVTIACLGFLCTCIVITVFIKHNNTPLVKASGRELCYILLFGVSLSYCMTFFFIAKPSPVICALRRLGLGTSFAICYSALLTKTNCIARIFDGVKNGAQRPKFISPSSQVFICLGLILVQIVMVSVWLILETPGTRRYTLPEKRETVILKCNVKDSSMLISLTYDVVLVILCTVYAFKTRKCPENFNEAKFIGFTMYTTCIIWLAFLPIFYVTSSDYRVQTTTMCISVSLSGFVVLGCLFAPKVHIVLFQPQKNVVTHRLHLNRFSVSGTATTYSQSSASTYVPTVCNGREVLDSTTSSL

SMILES: COc1ccc(-c2ccc3cc(C(=O)N4CCCC(CO)C4)ccc3c2)cc1OC (stereo unspecified)
- IC50 [1]: 2.61 µM

SMILES: CCOc1ccc(S(=O)(=O)NCc2ccccc2)cc1
- AC50 [2]: > 70 µM (inactive)
- AC50 [3]: 66.7 µM (active) and > 70 µM (inactive)

SMILES: Cc1ccc(S(=O)(=O)CCC(=O)c2ccc(F)cc2)cc1
- AC50 [4]: 27.9 µM (active)
- AC50 (Paired box protein Pax-8): 11.3 µM (active)

SMILES: CC(C)N1C[C@@H](C)[C@H](CN(C)Cc2cccc(Oc3ccccc3)c2)Oc2c(NC(=O)c3ccncc3)cccc2C1=O
- AC50 [5]: 0.075 nM (active)
- AC50 [6]: 0.00713 µM (active)
- IC50 [7]: 1.5 µM (inconclusive)

SMILES: CCOc1ccnc(OCC)c1Br
- AC50 [8]: 32.8 µM (active)

SMILES: COc1cc(/C=C(\CC(=O)O)c2nc3ccccc3s2)ccc1OCC(=O)Nc1ccccc1F
- AC50 [9]: 58.5 µM (active)

SMILES: C[C@H](CO)N1C[C@H](C)[C@H](CN(C)Cc2ccc(-c3ccccc3)cc2)Oc2cc(C#C[C@@H](C)O)ccc2S1(=O)=O
- AC50 [10]: 50.9 µM (active)
- AC50 [11]: 2.82 µM (active)
- AC50 [12]: 37.3 µM (active)
- AC50 [13]: 12.3 µM (active)

SMILES: Cc1cc(C)nc(Nc2nc(-c3ccccc3)cs2)n1
- IC50 [14]: 3.29 µM (active)
- EC50 (cells [15]): > 67.5 µM (inactive)
- EC50 [16]: > 67.5 µM (inactive)
- IC50 [17]: 1.89 µM (active)
- IC50 (Caspase-3): > 100 µM (inactive)
- IC50 [18]: 2.1 µM (active)

SMILES: Cc1ccc(N(CC(=O)NCc2ccco2)S(=O)(=O)c2ccccc2)cc1
- AC50 [19]: > 52 µM (inactive)

SMILES: C[C@H]1CN([C@@H](C)CO)C(=O)c2cc(NC(=O)C3CCCCC3)ccc2O[C@@H]1CN(C)Cc1ccc(-c2ccccc2)cc1
- AC50 [20]: > 70 µM (inactive)
- AC50 [21]: 51.3 µM (active)

SMILES: CCC(C)NC(=O)Cc1ccc(-c2ccccc2)cc1 (stereo unspecified)
- EC50 [22]: > 60 µM (not active)
- AC50 [23]: 141 µM (active)
- EC50 [24]: 0.794 µM (active)

SMILES: [N-]=[N+]=NCCOCCNC(=O)CCCOc1ccc(C[S+]([O-])c2nnc(-c3ccc(F)cc3)o2)nc1 (stereo unspecified)
- IC90 [25]: 8 µM (active)
- IC90 [26]: 8 µM (active)

SMILES: CC(C)N1CCc2c(sc(NC(=O)Cc3ccccc3)c2C#N)C1
- AC50 (cells [27]): 10.8 µM (active)

SMILES: Cc1nc2[nH]c(-c3cccs3)nc2cc1Br
- AC50 [28]: 26 µM (active)
- EC50 [29]: > 67.5 µM (inactive)
